Measurements as given in a melting point compilation (Tetko et al.; mined from patent text by program, amines drawn as free bases though some values may be those of a salt).

Compound	melting point
Nc1nc2ccc(C(F)(F)C(F)(F)F)cc2s1	100 °C
CS(=O)CCN1CCC2(CC1)CC(=O)c1cc(NS(C)(=O)=O)ccc1O2 (stereo not given)	181 to 183 °C
CCOC(=O)C(=O)Nc1ccc(Cl)c(C(F)(F)F)c1	128 to 130 °C
O=C(C=Cc1ccc(Br)s1)Nc1nnn[nH]1	268 °C
CNC(=O)NCCn1c(-c2ccc(CN3CCOCC3)cc2C)csc1=Nc1ccc(F)c(C)c1	130 to 135 °C
N#Cc1ccc(N2CCOCC2)c(NC(N)=S)c1	193 to 194 °C
COc1ccc(N2CCN(c3c(C)c(C)c4c(c3C)C(N3CCN(C)CC3)C(C)(C)O4)CC2)cc1 (stereo not given)	94 to 96 °C
O=C(Nc1cccc(C(F)(F)F)c1)C1C(=O)C2CCC(C2)C1=O (stereo not given)	68 to 69 °C
Cc1cnc(N2CCN(C(=O)OC(C)(C)C)CC2)c2ccoc12	108 °C
COC(=O)C1CN(Cc2cccnc2)C(=O)C(=C2SC=CS2)C1=O (stereo not given)	111 to 114 °C
COc1ccc2c(c1)CCC1CCNC(=O)C(CC(C)NC(C)C)=C21 (stereo not given)	118 to 126 °C
COc1ccc(S(=O)(=O)NC(=N)CCN2CCOC2=O)cc1	115 to 118 °C
CC1(c2nn(-c3ccc([N+](=O)[O-])cc3Cl)c(=O)o2)CC1	95 to 97 °C
CCOC(=O)c1cn(C2CC2)c2nc(N3CCCC(n4ccnn4)C3)c(F)cc2c1=O (stereo not given)	205 to 206 °C
O=c1c2cc3ccccc3cc2oc2cc(OCC3CS3)cc(O)c12 (stereo not given)	189 to 190 °C
CN(c1cc(OC(F)(F)F)cc2cc(C3=NCC(CN4CCOCC4)S3)[nH]c12)S(=O)(=O)c1cccs1 (stereo not given)	165 to 166 °C
CN1CCC(N2CC=CC3=C2C(O)c2ccc(Cl)cc2SC3)CC1 (stereo not given)	158 to 160 °C
O=C1CSC(=S)N1N=c1sc2ccc([N+](=O)[O-])cc2s1	315 °C
N#CC(C#N)=C1N(CCCN2CCOCC2)CCN1C1CCN(C2CC2)CC1	104 to 106 °C
COc1cc(C=NC2CCCCC2)c([N+](=O)[O-])cc1OC	160 to 161 °C
CC(C)n1nc(OS(=O)(=O)C(F)(F)F)ccc1=O	45 to 46 °C
CCC(CC)Nc1c(N)cc(C)c(C)c1[N+](=O)[O-]	80 to 82 °C
CCOC(=O)[C@H]1O[C@@H]1C(=O)N[C@H](COCC(=O)N(C)C)CC(C)C	64 to 65 °C

Compound	melting point
COC(=O)c1cc(CCC2CNc3nc(NC(=O)C(C)(C)C)nc(O)c3C2)c[nH]1 (stereo not given)	236 to 238 °C
NCCCCn1cnc2c(N)nc3cccnc3c21	161 to 163 °C
O=C(O)Cc1c(C(=O)C2CCCCC2)[nH]c2cc(Cl)ccc12	206 to 209 °C
CCCO[C@@H](C)C(=O)Oc1ccc(C(=O)O)cc1	84 °C
COC(=O)Cc1cc(OC)ccc1O	69 to 70 °C
CC1CCCN(c2nc(S(C)(=O)=O)nc(Cl)c2-c2c(F)cc(F)cc2F)O1 (stereo not given)	160 to 162 °C
CCOP(=O)(CC(N)=S)OCC	73 to 75 °C
COC(=O)CC(=O)NCc1cc(Br)cc2[nH]c(=O)c(=O)[nH]c12	> 300 °C
CCCCCCCCCCCCCCCCC(C(=O)NC1=NN(c2ccccc2)C(=O)C1C)S(=O)(=O)O (stereo not given)	240 °C
O=C(CCl)c1ncccn1	73 to 80 °C
O=C1CCN(C(=O)c2ccc(Cl)cc2)CC1	61 to 63 °C
CC(C)NC(=O)N1CCc2[nH]cnc2C1C1CCCCC1 (stereo not given)	254 °C
CS(=O)(=O)Nc1cccc(Nc2nc(NCCN3CCOCC3)c3nc[nH]c3n2)c1	233 to 237 °C
COc1ccc(C(=O)CCCCCl)cc1S(=O)(=O)NC(C)C	122 to 124 °C
O=C(O)C1CCC(c2ccc(O)cc2)CC1 (stereo not given)	248 to 250 °C
Nc1ccc2nc(N3CCOCC3)nn2c1	165 °C
CC(C)(C)NS(=O)(=O)c1ccccc1C=C1CCOC1=O	173 to 176 °C
CN1C(=O)C(NC(=O)CCC2CCCCC2)N=C(c2ccccc2)c2ccsc21 (stereo not given)	189 to 190 °C
CC1(C)C=C(N2CCCS2(=O)=O)c2cc(S(C)(=O)=O)ccc2O1	226 to 227 °C
CCCCNC(=O)C(=O)NCCCCCO	136 to 137 °C
CC(C)c1ccc(C2(CC(=O)O)CNC(=O)C2)cc1 (stereo not given)	175 to 178 °C
CC12CC(F)C3C(CCC4=CC(=O)CCC43C)C1CCC2=O (stereo not given)	162 to 164 °C

Next, values leading:

melting point	Compound
115 to 116 °C	CC(C)S(=O)(=O)Nc1cc(C(=O)c2ccccc2)ccc1[N+](=O)[O-]
199 °C	OC(c1ccc(Cl)cc1)(c1cccnc1)c1ccc2noc(-c3cccc(Cl)c3)c2c1 (stereo not given)
87 °C	CCCCCCCNC(=O)Nc1cc(N(C)C)ccc1C(=O)NC1CCN(C(c2ccccc2)c2ccccc2)CC1
138 to 139 °C	N#Cc1ccc(OCCC2CCN(c3cc(Cl)nnc3Cl)CC2)cc1
82 to 84 °C	CCCCCCC(=O)N(CCCCn1ccnc1)C1=Nc2cccc3cccc1c23
73 to 75 °C	COC(=O)Cc1ccccc1N(Cc1ccc(Cl)cc1)S(C)(=O)=O
114 °C	O=CN1C(=O)c2ccccc2OC1C(Cl)(Cl)Cl (stereo not given)
138 to 140 °C	CC(C)(C)c1cc(P(c2ccccc2)c2cc(C(C)(C)C)c(O)c(C(C)(C)C)c2)cc(C(C)(C)C)c1O
345 °C	Cc1c(O)ccc2c(=O)c(-c3ccc([N+](=O)[O-])cc3)coc12
86 °C	CCCCCCCCOc1ccc(-c2nnc(-c3cc(Cl)ccc3Cl)o2)cc1
276 to 281 °C	Cc1ccc(C(=O)NC(=O)Nc2ccc3c(c2)NC(=O)/C3=C\c2ccc[nH]2)cc1
178 to 183 °C	NC(=O)Cc1ccccc1Cn1ccc(OCc2ccc(F)cc2F)c(Br)c1=O
173 to 174 °C	Nc1nc(-c2ccccn2)nc2ccccc12
155 to 157 °C	N#Cc1ccc(-c2ncc(C(F)(F)F)cc2Cl)cc1O
258 to 261 °C	N#Cc1cccc(-c2nnc(-c3cccnc3)s2)c1
157 to 159 °C	COCc1cc2cc(CN3CCOCC3)cc3c(=O)c(C(=O)NCc4ccc(Cl)cc4)cn1c23
116 to 118 °C	CNC(=O)c1cc(-c2ccc(SC)cc2)nn(CC2CC2)c1=O
201 to 202 °C	CCCCCCOc1ccc(-n2c(-c3ccc(Br)cc3)ccc2-c2ccc(Br)cc2)cc1
230 °C	O=C1c2ccccc2C(O)(c2ccccc2)N1CC(c1ccccc1)c1ccccc1 (stereo not given)
157 to 158 °C	c1ccc2cc(OCCc3c[nH]cn3)ccc2c1
99 to 101 °C	CC(=O)Oc1ccc(Cn2ccnc2SC(C)=O)cc1
173 to 174 °C	CN(C)Cn1nc(-c2ccncc2)n(-c2ccccc2)c1=S
170 to 172 °C	Cc1ccc(-c2ccccc2-c2nn[nH]c2C#N)cc1
281 to 283 °C	CS(=O)(=O)c1ccc(-c2[nH]c3ccc(Cl)cc3c2-c2ccc(Cl)cc2)cc1
123 to 125 °C	C=CCn1cc(C2CCN(CCOc3ccccc3C(=O)O)CC2)c2ccccc21
146 to 147 °C	Cc1ccc(C[C@@H]2CN(CCCN3C(=O)c4ccccc4C3=O)CCN2C(=O)c2cc(C(F)(F)F)cc(C(F)(F)F)c2)cc1C
188 °C	Cc1cccc(-c2cncc(OC3SCC(O)C(O)C3O)c2)n1 (stereo not given)
158 to 159 °C	CC1=C(O)C(=O)C(C)(C(O)Cc2ccccc2)O1 (stereo not given)

melting point	Compound
172 to 174 °C	COc1cc(NC(=O)c2cc3cc(F)ccc3n2Cc2cccc(F)c2)cnc1N1CCCC1
145 °C	OCCc1ccc(OCc2ccc3ccccc3n2)cc1
179 to 180 °C	C=CCCc1ccc(NC(=O)OCc2ccccc2)c(O)n1
229 to 231 °C	O=c1[nH]ncc(NCCN2CCC(c3noc4cc(F)ccc34)CC2)c1Cl
70 to 75 °C	CCn1ncc(C(=O)c2ccc(S(C)(=O)=O)c(C3=NOCC3)c2Cl)c1OCc1ccccc1
245 to 247 °C	COc1ccc(C(=O)C2=C(O)C(=O)N(c3nnc(C)s3)C2c2ccc(OC(F)(F)F)cc2)cc1 (stereo not given)
248 to 250 °C	CN1C(=O)CC[C@]2(C)c3ccc(-c4ccc(NC(=O)C(C)(C)C)nc4)cc3CC[C@@H]12
172 to 173 °C	O=C(NCc1cccc(C(F)(F)F)c1)c1cncc2c1cnn2-c1ccc(F)cc1
208 to 209 °C	O=c1nc(-c2cccc(CO)n2)sc2ccccc12
199 to 201 °C	O=c1oc(=O)n(-c2ccc(F)cc2)c2ccccc12
79 to 80 °C	CCOC(=O)c1nc(/C=C/c2ccccc2)ns1
174 to 177 °C	Cn1c(C(F)(F)F)cc(=O)n(-c2cc(OCc3ccc(F)cc3)c(Cl)cc2F)c1=O
300 to 301 °C	CC(C)(C)c1ccc(C(=O)Nc2cn3cc(-c4ncc[nH]4)ccc3n2)cc1
110 to 114 °C	COc1ccc(Nc2nc(C)ncc2S(=O)(=O)c2ccc(OCc3ccccc3)cc2)c(C)c1
199 to 201 °C	CC(C)COc1ccc2c(c1)c(=O)n(CCC(=O)O)c(=O)n2Cc1c[nH]c2ccccc12
108 to 112 °C	CC(=O)Nc1ccccc1C(=O)NCCN1[C@H](C)Cc2ccsc2[C@@H]1C (relative stereo)
161 to 162 °C	COc1cc(COc2nn(-c3ccccc3)cc2CCC(=O)O)ccc1OCc1nc(-c2ccco2)oc1C
194 to 195 °C	c1ccc(C2CNc3c(cnc4ccccc34)O2)cc1 (stereo not given)
158 °C	CCCO[C@@H]1[C@@H](OC)[C@H](C)O[C@@H](OC(=O)Nc2ccc(-c3ncn(-c4ccc(OC(F)(F)C(F)(F)F)cc4)n3)cc2)[C@@H]1OC
224 to 226 °C	COc1cc(N(C)C)nc(NC(=O)NS(=O)(=O)c2ccccc2Cl)n1
143 to 145 °C	Clc1ccc([C@@]2(Cn3ccnc3)OC[C@H](COc3ccc4c(c3)CCNC4)O2)c(Cl)c1 (racemic)
174 to 175 °C	COCCCn1nnnc1-c1ccc(O)c(Br)c1O
122 to 123 °C	COc1cc(N)c2ncccc2c1OCc1ccc(Cl)cc1
76 to 78 °C	CC(C#N)(C(=O)NC1CCCCC1)c1ccccc1 (stereo not given)
181 to 182 °C	CCOC(=O)Nc1[nH]c2ccc(Sc3ccccc3)cc2c1C#N
109 to 110 °C	CCCCC(=O)N(CCOCc1ccccc1)Cc1ccc(-c2ccccc2-c2nnn[nH]2)cc1
342 °C	O=C1Nc2cc(Cl)ccc2C(=O)C1c1cc2ccccc2o1 (stereo not given)
